Source: US8852917B2, “Thuricin CD, an antimicrobial for specifically targeting Clostridium difficile” (University College Cork, priority 2007, dated 2014)
In brackets after ≈: the same amount, converted by molar mass. Entries after “also recorded” stand apart in the source; their conditions may differ. Read-outs that look alike come from different tables or passages of the source.

What was measured:
[1] = test system: C. difficile ribotypes 001, 106 and 027; experiment: Determination of minimum inhibitory concentrations; type: cell-based
bifidobacteria strains = type: cell-based
Gram negative organisms = type: cell-based; conditions: WDA
Description: B. thuringiensis DPC 6431 was grown aerobically from stock for ˜6 h in BHI broth and sub-cultured into fresh BHI at 0.1% for 18 h in BHI. Following growth, the culture was centrifuged twice at 8200 g for 10 min. Activity was determined using the well diffusion assay (WDA) as described by Ryan et al., (1996). Activity against a range of target organisms was determined by WDA. Cultures were grown over-night in various broth media and temperatures as outlined in Table 1. Twenty ml of the appropriate agar medium was inoculated with 100 μl of target organism and, once solidified, 50 μl of the cell free supernatant (CFS) of B. thuringiensis DPC 6431 was added to a well made in the agar. Plates were incubated under conditions appropriate for the various target organisms as outlined in Table 1. Zones of inhibition (mm) were measured and relative sensitivity determined by measuring the diameter of the zone. Zones of size ≦9 mm were designated +; of 10-15 mm were designated ++; of 16-21 mm were designated +++; of ≧22 mm were designated ++++;

[2] = Sensitivity to enzymatic degradation; type: in vitro ADME; conditions: FIG. 1; Proteinase K (6.5 mg/ml) applied to the edge of the well
Description: The cell free supernatant was tested for sensitivity to the following enzymes at a concentration of 25 mg/ml: pepsin, trypsin, peptidase, α-chymotrypsin type V111, α-chymotrypsin type 11 and proteinase K. All enzymes were purchased from Sigma. Cell free supernatants were incubated with the enzymes for 1 h at 37° C. Activity post enzyme treatment was determined using the well diffusion method using C. difficile ATCC 43593 as the target organism. Sensitivity of the antimicrobial to Proteinase K was also determined by applying 5 μl of Proteinase K (6.5 mg/ml) to the edge of the well containing the sample.

[3] = Activity over a range of pH; type: physicochemical
Description: (§1) Activity over a range of pH was determined in CFS by adjusting pH from 2 to 9 using either 0.5M HCl or 1M NaOH. The effect of acid or base on the target organism was determined using uninoculated broth medium adjusted through the pH range. Activity was determined using WDA assay using C. difficile ATCC 43593 as the target strain. Heat sensitivity was determined by heating the CFS for 15 min at a range of temperatures from 37° C. to 100° C.; the control was incubated at 37° C. Activity was determined using WDA with C. difficile ATCC 43593 as the target organism.

Heat sensitivity = type: physicochemical
Description: as §1

C. difficile R027 NAP1 = experiment: Kill curves; type: cell-based
Description: The effect of thuricin against C. difficile R027 NAP1, L. monocytogenes NCTC 5348, Lb. casei 338 and B. lactis Bb12 was determined in Reinforced Clostridium Medium (RCM Merck), Brain Heart Infusion broth (Merck), MRS (de Mann-Rogosa-Sharpe) medium (Difco) and MRS containing 0.05% cystein respectively. Three independent cultures were prepared for each strain and grown overnight at 37° C. Three replicate one ml volumes of sterile double strength broth medium was prepared for each strain and inoculated with the test organisms to give initial cell numbers of 10^5-10^6/ml. Thuricin was added to give the required concentration and the volume made up to 2 ml with sterile distilled water. The bacteriocin was omitted from the control and volume substituted with sterile water. Samples were removed at intervals, serially diluted and plated on RCA, BHI agar, MRS agar or MRS agar containing 0.05% cystein depending on the strain. Plates were counted after 24 h (L. monocytogenes), or 48 h (C. difficile, Lb. casei 338 and B. lactis Bb12) incubation at 37° C.

[4] = test system: L. monocytogenes NCTC 5348; type: cell-based
Lb. casei 338 = type: cell-based
B. lactis Bb12 = type: cell-based
C. difficile = experiment: Lysis of C. difficile by thuricin CD; type: cell-based
Description: The lytic effect of thuricin CD on C. difficile was carried out as described by Rea et at (2007).

[5] = test system: C. difficile DPC 6537 (PCR ribotype 001); experiment: Model faecal fermentation; type: cell-based; conditions: 500 μg thuricin added at 0, 8, and 16 hr; spiked with 10^6 cfu C. difficile ribotype 001/ml; after 16 hr incubation
Description: C. difficile DPC 6537 (PCR Ribot e 001) was taken from −80° C. stock and streaked on Fastidious Anaerobic Agar and incubated anaerobically at 37° C. On the night before the experiment ˜1 colony was inoculated into 10 ml of RCM which has been previously boiled and cooled and incubated anaerobically at 37° C.
Faecal growth medium was prepared as described by Fooks and Gibson (2003) with minor modifications as follows. The ingredients were made up to 800 ml, the pH adjusted to 6.8. One hundred and sixty ml was added to each fermentation vessel and autoclaved at 121° C. for 15 min. Prior to inoculation the faecal medium was sparged with O2-free nitrogen for ˜1 h. A 20% faecal slurry was made from a fresh faecal sample in 50 mM phosphate buffer containing 0.05% cystein which has been previously boiled and cooled just prior to use and mixed using a stomacher for no longer than 1 min. Two fermentor vessels were inoculated with 35 ml of the slurry preparation and 2 ml of the overnight culture of C. difficile. […] Samples were also taken for analysis of thuricin activity using WDA and MALDI-TOF MS.
(§2) C. difficile was enumerated on CCEY agar (LabM) and Bifidobacterium sp. on modified MRS agar containing 0.05% cystein and 50 mg mupirocin/1 after 48 h and 72 h at 37° C. incubation respectively.

Bifidobacteria = experiment: Model faecal fermentation; type: cell-based, Bifidobacterium sp.; conditions: up to 16 hr incubation
Description: Faecal growth medium was prepared as described by Fooks and Gibson (2003) with minor modifications as follows. The ingredients were made up to 800 ml, the pH adjusted to 6.8. One hundred and sixty ml was added to each fermentation vessel and autoclaved at 121° C. for 15 min. Prior to inoculation the faecal medium was sparged with O2-free nitrogen for ˜1 h. A 20% faecal slurry was made from a fresh faecal sample in 50 mM phosphate buffer containing 0.05% cystein which has been previously boiled and cooled just prior to use and mixed using a stomacher for no longer than 1 min. Two fermentor vessels were inoculated with 35 ml of the slurry preparation and 2 ml of the overnight culture of C. difficile. To the test vessel 1 ml of 100 mg/ml thuricin was added at 0, 8 and 16 h incubation and both vessels sampled at 0, 4, 8, 12, 16, 20 and 24 h for both microbiological analyses of C. difficile and Bifidobacteria sp. Samples were also taken for analysis of thuricin activity using WDA and MALDI-TOF MS.
as §2

[6] = Stability in simulated gastric, ileal and colon juice; type: in vitro ADME; conditions: 37° C., 1 mg/ml, WDA
Description: Effect of simulated gastric, ileal and colon juice on stability of thuricin CD C. difficile 64539 was grown overnight and inoculated at 1.25% into Reinforced Clostridium Agar (RCA). Simulated gastric, ileal and colon juice were prepared as outlined by Breumer et al (1992). Purified thuricin CD was made up to 100 mg/ml in 70% IPA. Seventy μl (1 mg/ml final concentration) of thuricin was added to 7000 μl of porcine gastric and ileum juice and incubated at 37° C. At intervals samples were taken and activity was measured with the WDA using C. difficile seeded plates. The samples were also assayed for the presence of the Trn-α and Trn-β peptides using MALDI-TOF MS

[7] = Stability in ex vivo porcine gastric and ileal juice; type: in vitro ADME; conditions: 37° C., 1 mg/ml, WDA
Description: Effect of ex vivo porcine gastric and ileal juice on the stability of the thuricin CD C. difficile 64539 was grown overnight and inoculated at 1.25% into Reinforced Clostridium Agar (RCA). Purified Thuricin CD was prepared as described above. Seven ml of porcine ileal and gastric juice was centrifuged for 15 min at 12,000 rpm to remove debris. Seventy μl (1 mg/ml) of thuricin was added to 7000 μl of porcine gastric and ileum juice and incubated at 37° C. At intervals samples were taken and activity was measured using the WDA and checked for the presence of the Trn-α and Trn-β peptides using MALDI-TOF MS.

[8] = test system: Lactobacillus and Bifidobacterium populations; conditions: simple faecal fermentations; concentrations required to kill C. difficile; cited from earlier work
[9] = C. difficile ribotype 001, 16 h at 37° C. anaerobically, read-out: MIC
[10] = C. difficile ribotype 106, 16 h at 37° C. anaerobically, read-out: MIC

Molecule: Cc1ncc([N+](=O)[O-])n1CCO [Metronidazole, metronidazole]
- MIC ([1]; Clostridioides difficile, 16 h, C. difficile ribotype 001, 16 h at 37° C. anaerobically, read-out: MIC): 3.12 µM (≈ 0.535 µg/mL)
- MIC ([1]; Clostridioides difficile, 16 h, C. difficile ribotype 027, 16 h at 37° C. anaerobically, read-out: MIC): 3.12 µM (≈ 0.535 µg/mL)
- MIC ([1]; Clostridioides difficile, 16 h, C. difficile ribotype 106, 16 h at 37° C. anaerobically, read-out: MIC): 1.56 µM (≈ 0.267 µg/mL)

Molecule: Thuricin CD
- Sensitivity of bifidobacteria strains tested (bifidobacteria strains): No bifidobacteria strains tested were sensitive
- Activity against Gram negative organisms tested (Gram negative organisms): no activity
- Activity on treatment with Proteinase K [2]: lost
- pH range in which active [3]: 2-10
- Activity after heating at 90° C. (Heat sensitivity): reduction of activity
- Activity after heating at 100° C. (Heat sensitivity): loss of activity
- Temperature up to which heat stable / activity retained (Heat sensitivity): up to 95 °C
- Temperature up to which heat-stable (Heat sensitivity): about 85 ° Centigrade
- Time within which approximately 5×10^6 CFU of C. difficile per ml are killed (C. difficile R027 NAP1; 5 μM): ≤ 60 minutes
- Time to reduce viable cells from ˜10^6/ml to zero (C. difficile R027 NAP1; 200 AU thuricin/ml, C. difficile PCR ribotype 027): ≤ 2 h
- Time within which approximately 5×10^6 CFU of C. difficile per ml are killed (C. difficile R027 NAP1; 200 AU/ml): ≤ 180 minutes
- Time within which ˜5×10^6 cfu of C. difficile per ml were killed (C. difficile R027 NAP1; 200 AU/ml): ≤ 180 min
- Reduction of cell numbers of L. monocytogenes [4]: 1.5 log cycles
- Effect on viability of Lb. casei 338 (Lb. casei 338): no effect; also recorded: did not affect
- Effect on viability of B. lactis BB12 (B. lactis Bb12): no effect; also recorded: did not affect
- Effect on OD600 nm of logarithmically growing C. difficile (C. difficile): gradual reduction of OD600 nm
- Acetate kinase in the growth medium (lysis) (C. difficile; logarithmically growing C. difficile): release of the intracellular enzyme acetate kinase
- MIC [1, 9]: 0.097 µM
- MIC ([1]; C. difficile ribotype 027, 16 h at 37° C. anaerobically, read-out: MIC): 0.012 µM
- MIC [1, 10]: 0.125 µM
- Reduction of C. difficile compared with the control [5]: over 1000 fold
- Effect on numbers of Bifidobacteria relative to control (Bifidobacteria): did not affect
- Activity after incubation in simulated gastric juice ([6]; 2 hours): no reduction of activity
- Activity after incubation in simulated ileal juice ([6]; 4 hours): no reduction of activity
- Activity after incubation in simulated colon juice ([6]; 9 hours): no reduction of activity
- Activity after incubation in ex vivo porcine gastric juice ([7]; 2 hr): no reduction in activity
- Activity after incubation in ex vivo porcine ileal juice ([7]; 5 hr): no reduction in activity

Molecule: CN[C@H](CC(C)C)C(=O)N[C@H]1C(=O)N[C@@H](CC(N)=O)C(=O)N[C@H]2C(=O)N[C@H]3C(=O)N[C@H](C(=O)N[C@H](C(=O)O)c4cc(O)cc(O)c4-c4cc3ccc4O)[C@H](O)c3ccc(c(Cl)c3)Oc3cc2cc(c3O[C@@H]2O[C@H](CO)[C@@H](O)[C@H](O)[C@H]2O[C@H]2C[C@](C)(N)[C@H](O)[C@H](C)O2)Oc2ccc(cc2Cl)[C@H]1O [Vancomycin, vancomycin]
- MIC [1, 9]: 0.39 µM (≈ 0.565 µg/mL)
- MIC [1, 10]: 0.39 µM (≈ 0.565 µg/mL)
- MIC ([1]; Clostridioides difficile, 16 h): 0.39 µM (≈ 0.565 µg/mL)

Molecule: lacticin 3147
- Effect on Lactobacillus and Bifidobacterium populations [8]: 3 log cycles
